Source: US20070081948A1, “Dry powder composition comprising a benzodiazepine for pulmonary inhalation” (Vectura Limited, priority 2003, published 2007)

Assay: Emitted 6.8 micron particle fraction from vortex chamber versus ratio of chamber diameter to exit port diameter
Assay type: physicochemical
Details: for Normalised average particle fraction <6.8 μm (%): emitted fraction divided by fraction of the loaded powder
Source text: The normalised average 6.8 micron particle fraction is the emitted 6.8 micron particle fraction divided by the 6.8 micron particle fraction of the powdered medicament loaded into the inhaler. The medicament used was pure Intal™ sodium cromoglycate (Fisons UK).

Compound: O=C(O)c1cc(=O)c2c(OCC(O)COc3cccc4oc(C(=O)O)cc(=O)c34)cccc2o1 [sodium cromoglycate]
- Average particle fraction <6.8 μm (%) (Ratio D/De 2.0): 64.7%
- Normalised average particle fraction <6.8 μm (%) (Ratio D/De 2.0): 73.1%
- Average particle fraction <6.8 μm (%) (Ratio D/De 3.1): 70.8%
- Normalised average particle fraction <6.8 μm (%) (Ratio D/De 3.1): 79.9%
- Average particle fraction <6.8 μm (%) (Ratio D/De 4.0): 75.5%
- Normalised average particle fraction <6.8 μm (%) (Ratio D/De 4.0): 85.2%
- Average particle fraction <6.8 μm (%) (Ratio D/De 6.0): 81.0%
- Normalised average particle fraction <6.8 μm (%) (Ratio D/De 6.0): 91.4%
- Average particle fraction <6.8 μm (%) (Ratio D/De 7.1): 83.5%
- Normalised average particle fraction <6.8 μm (%) (Ratio D/De 7.1): 94.3%
- Average particle fraction <6.8 μm (%) (Ratio D/De 8.0): 83.2%
- Normalised average particle fraction <6.8 μm (%) (Ratio D/De 8.0): 93.9%
- Average particle fraction <6.8 μm (%) (Ratio D/De 8.6): 80.6%
- Normalised average particle fraction <6.8 μm (%) (Ratio D/De 8.6): 91.0%
